Data reported in patent US12161647B2, “Treating hearing loss” (Massachusetts Eye and Ear Infirmary, priority 2012, dated 2024).

Legend:
[1] = system: deafened ears; test: ABR and DPOAE in deafened ears after round window administration; assay type: in vivo, mouse
Protocol: (§1) 4-week-old mice were exposed free-field, awake and unrestrained, in a small reverberant chamber (22). Acoustic trauma was produced by a 2 h exposure to an 8-16 kHz octave band noise presented at 116 dB SPL. The exposure stimulus was generated by a custom white-noise source, filtered (Brickwall Filter with a 60 dB/octave slope), amplified (Crown power amplifier), and delivered (JBL compression driver) through an exponential horn fitted securely to a hole in the top of a reverberant box.
(§2) 4-week-old mice weighing 12 to 16 g were used. Before surgery, the animals were anesthetized with ketamine (20 mg/kg, i.p.) and xylazine (100 mg/kg, i.p.), and an incision was made posterior to the pinna near the external meatus after local administration of lidocaine (1%). The otic bulla was opened to approach the round window niche. The end of a piece of PE 10 tubing (Becton Dickinson) was drawn to a fine tip in a flame and gently inserted into the round window niche. LY411575 was dissolved in DMSO and diluted 10-fold in polyethylene glycol 400 (Sigma) to a final concentration of 4 mM. This solution (total volume 1 μl) was injected into the round window niche of the left ear. Polyethylene glycol 400 with 10% DMSO was injected into the right ear as a control. The solution was administered for 2 min. This approach is presently used clinically (e.g. transtympanic injection of steroids for sudden hearing loss and gentamicin for severe balance disorders) and has the advantage of sparing the […] but still taking advantage of the local route provided by the round window membrane for delivery of drug into the inner ear (50). Gelatin was placed on the niche to maintain the solution, and the wound was closed.
Auditory brain stem responses (51, 52) were measured in each animal at 7 log-spaced frequencies (half-octave steps from 5.6 to 45.2 kHz) before and 1 d after noise exposure, and 1-week, 1-month, and 3-months after surgery. Mice were anesthetized with ketamine (100 mg/kg i.p.) and xylazine (20 mg/kg i.p.). Needle electrodes were inserted at vertex and pinna, with a ground near the tail. ABRs were evoked with 5-ms tone pips (0.5-ms rise-fall with a cos^2 onset envelope delivered at 35/s). The response was amplified, filtered and averaged in a LabVIEW-driven data-acquisition system. Sound level was raised in 5 dB steps from ≥10 dB below threshold <80 dB SPL. At each sound level, 1024 responses were averaged (with stimulus polarity alternated), using an “artifact reject,” whereby response waveforms were discarded when peak-to-peak response amplitude exceeded 15 μV. […] For amplitude versus level functions, the wave I peak was identified by visual inspection at each sound level and the peak-to-peak amplitude computed.

[2] = system: deafened mature cochlea; test: Hair cell and supporting cell counts in deafened mature cochlea after round window administration; assay type: in vivo, mouse
Protocol: as §1, §2
For collection of mature mouse cochleae, after being deeply anesthetized with ketamine and xylazine, the mice were transcardially perfused with 0.01 M phosphate buffer (pH 7.4) containing 8.6% sucrose, followed by fixative consisting of freshly depolymerized 4% paraformaldehyde in 0.1 M phosphate buffer (pH 7.4). After decapitation, the temporal bones were removed and immediately placed in the same fixative at 4° C. Small openings were made at the round window, oval window, and apex of the cochlea. […] Primary antibodies were detected with secondary antibodies conjugated with Alexa 488, 568, and 647 (Molecular Probes) and viewed by confocal fluorescence microscopy (TCS SP5, Leica). […]
Cell counting for spheres was performed with MetaMorph software. The cell number was determined from DAPI- or Hoechst-positive nuclei. […] For explants, inner hair cells, outer hair cells, and supporting cells in the outer hair cell region were counted on cochlear whole mounts. […]

[3] = system: deafened cochlea of Sox2-CreER; mT/mG mice; test: In vivo lineage tracing of Sox2-positive supporting cells after round window administration; design: species or system mouse; details: one month after LY411575 treatment, left ear; none in control ears
Source text: For the experiments using inner ear spheres, C57BL/6 (Jackson Labs) or Math1-nGFP reporter mouse (19) (a gift from Jane Johnson, University of Texas) of both sexes were used. To create organ of Corti explants with ablated hair cells, Mos-iCsp3 mice (20) were crossed with Pou4f3-Cre mice (6) (a gift from Douglas Vetter, Tufts University). For all in vivo experiments, we used 4-week-old Cre reporter line, mT/mG (Jackson Labs), crossed to a Sox2-CreER mouse (47) (a gift from Konrad Hochedlinger, Mass General Hospital). After genotyping, double transgenic animals were used for lineage tracing. We used young adult wild-type littermates of the mT/mG; Sox2-CreER mice to prevent strain effects in the response to noise, which are known to vary depending on background (22, 48). Mice were genotyped by PCR. All protocols were approved by the Institutional Animal Care and Use Committee of Massachusetts Eye and Ear Infirmary or the by the ethics committee of Keio University Union on Laboratory Animal Medicine, in compliance with the Public Health Service policy on humane care and use of laboratory animals.
4-week-old mice were exposed free-field, awake and unrestrained, in a small reverberant chamber (22). Acoustic trauma was produced by a 2 h exposure to an 8-16 kHz octave band noise presented at 116 dB SPL. […]

C[C@H](NC(=O)[C@@H](O)c1cc(F)cc(F)c1)C(=O)N[C@@H]1C(=O)N(C)c2ccccc2-c2ccccc21 [LY411575, N-2((2S)-2-(3,5-difluorophenyl)-2-hydroxyethanoyl)-N1-((7S)-5-methyl-6-oxo-6,7-dihydro-5H-dibenzo[b,d]azepin-7-yl)-l-alaninamide]
ABR wave I amplitudes ([1]; 8, 11.33 and 16 kHz, 3 months): increased | ABR threshold recoveries ([1]; 8, 11.33 and 16 kHz, 3 months after treatment vs 1 d after noise): significantly greater than control | sound level at which the ABR peak could first be detected ([1]; 8 kHz, 3 months after treatment, example mouse, control side 75 dB): 65 dB | ABR threshold recoveries at high frequencies ([1]; frequencies above 22.65 kHz, either ear): No threshold recoveries | recoveries above the noise floor of DPOAE ([1]; mouse, in vivo): no recoveries | numbers of inner hair cells ([2]; 3 months, treated group): no significant changes | number of outer hair cells compared to carrier-treated contralateral ear ([2]; 3 months, 8-16 kHz, p<0.05): increased | number of supporting cells in the outer hair cell region compared to carrier-treated ear ([2]; 3 months, 8 and 11.3 kHz areas, p<0.05): decreased significantly | outer hair cells in the most basal regions ([2]; above 22 kHz, with and without LY411575): completely absent | myosin VIIa-positive cells also expressing GFP (Sox2 lineage) [3]: numerous
